US9879036B2, “Mitochondrial aldehyde dehydrogenase-2 binding compounds and methods of use thereof” (Aviv Therapeutics, Inc., priority 2014, dated 2018)
Numbering of substitutions follows the chain as printed.

What was measured:
Format in all cases: biochemical
ALDH2*1/*1 = target: T1, ALDH2*1/*1 (Homo sapiens, UniProt P05091); assay: ALDH2 enzymatic activity, NADH accumulation at 340 nm, acetaldehyde substrate, wild type; settings: relative to baseline enzymatic activity (100%)
T1 construct: His-tag (N); made in house; host or cells: E. coli BL21 (pTrcHis vector)
T1 sequence (P05091 18-517): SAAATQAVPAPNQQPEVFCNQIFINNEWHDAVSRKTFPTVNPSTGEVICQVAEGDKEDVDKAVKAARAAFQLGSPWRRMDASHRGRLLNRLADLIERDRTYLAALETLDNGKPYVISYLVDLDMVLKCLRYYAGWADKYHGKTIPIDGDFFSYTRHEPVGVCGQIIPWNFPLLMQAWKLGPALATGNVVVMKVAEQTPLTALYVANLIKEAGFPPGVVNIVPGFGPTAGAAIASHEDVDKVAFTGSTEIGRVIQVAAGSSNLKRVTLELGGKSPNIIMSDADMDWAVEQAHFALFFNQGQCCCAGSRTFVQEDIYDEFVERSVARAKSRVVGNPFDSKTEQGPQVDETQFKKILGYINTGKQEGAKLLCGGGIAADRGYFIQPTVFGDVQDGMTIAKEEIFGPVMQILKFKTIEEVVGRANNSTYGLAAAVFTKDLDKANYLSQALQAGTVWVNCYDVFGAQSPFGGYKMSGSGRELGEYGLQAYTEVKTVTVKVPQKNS
Method: (§1) ALDH2 catalyzes the oxidative reaction of substrate acetaldehyde to acetic acid using NAD^+ as a cofactor. Enzymatic activity, or catalytic rate, of aldehyde dehydrogenase (ALDH2) are measured spectrophotometrically at UV wavelength λ340 nm by the accumulation of reduced product NADH derived from NAD^+. Absorbance at λ340 nm is quantitatively proportional to the amount of NADH being produced over time (6.22 O.D. unit=1 mmol of NADH, measured in a 1-cm width standard cuvette). This method is well-established in the literature [e.g. Rex et al., Alcohol Clin. Exp. Res. 9, 147 (1985)].
as §1, with “can be” for “are”
(§2) Cloning, expression and purification of human ALDH2 wild type and ALDH2*2 recombinant mutant enzymes: Full-length wild type human ALDH2 cDNA was purchased from ATCC (No. MGC-1806. GenBank ID: BC002967). The 18-amino acid mitochondria transport signal sequence was removed by PCR and cloned into the NheI/HindIII sites of a His-tag vector, pTrcHis, using standard molecular cloning techniques. The human ALDH2* cDNA construct containing the Asian E487K mutation was obtained by site-directed mutagenesis to create the E487K substitution of the wild type ALDH2. Both human clones were designed to express a recombinant protein with the His-tag at the N-terminus of the protein. For the co-expression experiments of human ALDH2 wild type and ALDH2*2 heterotetramers, a wild type ALDH2 gene and a ALDH2 E487K gene were inserted separately into the two multiple cloning sites of pETDuet-1 vector. (Novagen, CA, USA). All the vectors were transformed into BL21 E. coli host cells and subjected to 0.5 mM IPTG induction for protein expression at 30° C. Purifications of the recombinant proteins by affinity nickel columns (HisTrap, GE Healthy Science, USA) were carried out using standard protocols according to manufacturer's instructions (Novagen, USA).
(§3) ALDH2 catalyzes the oxidative reaction of substrate acetaldehyde to acetic acid using NAD^+ as a cofactor. Enzymatic activity, or catalytic rate, of aldehyde dehydrogenase (ALDH2) can be measured spectrophotometrically at UV wavelength λ340 nm by the accumulation of reduced product NADH derived from NAD^+. Because compounds of formula (I) are considered to be agonists or “activators” of ALDH2 the enzymatic activity measured will exceed 100% of the baseline enzymatic activity of the enzyme in its normal activation state. As the concentration of the compounds of formula (I) decreases from 20 micromolar to 0.16 micromolar in the presence of ALDH, a decrease in the activation of enzymatic activity is observed for the wild-type ALDH2*1/*1 and the heterozygous form ALDH2*1/*2.

ALDH2*1/*2 = target: T2, ALDH2*1/*2 (Homo sapiens, UniProt P05091, E504K); assay: ALDH2 enzymatic activity, NADH accumulation at 340 nm, acetaldehyde substrate, heterozygous form; settings: relative to baseline enzymatic activity (100%)
T2 construct: His-tag; made in house; host or cells: E. coli BL21 (pETDuet-1 co-expression)
T2 sequence (P05091 18-517): T1 sequence (P05091 18-517)
T2 sequence (P05091 18-517 E504K): T1 sequence (P05091 18-517) with E487K
Method: as §1
as §1, with “can be” for “are”
as §2, §3

ALDH2 = target: T3, ALDH2 (Homo sapiens, UniProt P05091); assay: ALDH2 activity with 20 μM of the compound (Table 3); settings: 20 μM compound
T3 construct: His-tag (N); made in house; host or cells: E. coli BL21
T3 sequence (P05091 18-517): T1 sequence (P05091 18-517)
Method in brief: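 Compound was tested at 20 μM. ALDH2 oxidation of acetaldehyde with NAD+ cofactor was followed spectrophotometrically as NADH accumulation at 340 nm. Activity is expressed relative to the enzyme's baseline activity, taken as 100%.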

Compound: COc1ccc(CNC(=O)c2cc(-c3ncccc3CO)ccc2OCC2CC2)cc1F [AC6]
- activity at 2.5 µM (ALDH2*1/*1; 2.5 μM compound): 208%
- activity at 5 µM (ALDH2*1/*1; 5 μM compound): 238%
- activity at 10 µM (ALDH2*1/*1; 10 μM compound): 293%
- activity at 20 µM (ALDH2*1/*1; 20 μM compound): 299%
- activity at 2.5 µM (ALDH2*1/*2; 2.5 μM compound): 202%
- activity at 5 µM (ALDH2*1/*2; 5 μM compound): 260%
- activity at 10 µM (ALDH2*1/*2; 10 μM compound): 281%
- activity at 20 µM (ALDH2*1/*2; 20 μM compound): 336%
- activity at 20 µM (ALDH2): > 250%
